This note sets out measurements from US7601750B2, “Small molecule inhibition of a PDZ-domain interaction” (The Regents of the University of California, priority 2003, dated 2009).

One assay relates to H1703. The assay is described as follows: Apoptotic effects in cancer cells overexpressing Dvl, H1703. Format: cell-based, human. On the procedure:
(§1) Compounds were tested for apoptotic effects to represent the inhibitory effects of compounds on interaction between the PDZ domain of the Dishevelled (Dlv) protein and the Fz protein (Wnt receptor). Cell lines H513 and H1703 were utilized, with test compounds (compound numbers from Tables 1 and 2) being applied at 0 (control), 10 μM and 100 μM.

Assay [1] concerns human Dishevelled (Dvl) protein. The assay can be described thus: Binding to Dishevelled protein.
The test system of assay [2] is Wnt/beta-Catenin signaling. The assay is described as follows: Inhibition of Wnt/beta-Catenin signaling in H1703. To be noted: human lung cancer cell line H1703. In kind it is cell-based.
The test system of assay [3] is human lung cancer (H1073) cells. The assay can be described thus: Growth suppression and apoptosis in lung cancer cells (other tests). Format: cell-based. To be noted: 100 μM, after 4 days.
Assay [4] concerns Wnt/beta-Catenin signaling. The assay can be described thus: Inhibition of Wnt/beta-Catenin signaling in A549. Format: cell-based. Conditions: human lung cancer cell line A549.
Assay [5] has as its system human lung cancer (H460) cells. The assay can be described thus: Growth suppression and apoptosis in lung cancer H460 cells (other tests). In kind it is cell-based. To be noted: 100 μM, after 4 days.
A further assay deals with H513. The assay is described as follows: Apoptotic effects in cancer cells overexpressing Dvl, H513. In kind it is cell-based, human. To be noted: for apoptosis, %: H513, 1 day. On the procedure: as §1
Assay [6] relates to human melanoma (LOX) cells. The assay can be described thus: Growth suppression and apoptosis in melanoma cells (other tests). Format: cell-based. To be noted: 100 μM, after 4 days.

Take `CCCCC(O)c1cc2cc(C)c(C(=O)O)cc2n1CCc1ccccc1` (stereo not shown) [Compound 1, [2-(1-Hydroxypentyl)-5-methyl-1-(2-phenylethyl)]indole-6-carboxylic acid]: the “apoptosis, %” value is given as 6.2% with H1703 (10 μM, H1703, 4 days) and 38.7% in the assay on H1703 (100 μM, H1703, 4 days).

For the molecule `CCCCCc1c(CO)c2cc(C)c(C(=O)[O-])cc2n1CCc1ccccc1.[Na+]` [Compound 6, Sodium [3-hydroxymethyl-2-(1-pentyl)-1-(2-phenylethyl)-5-methyl]indole-6-carboxylate], the “binding to human Dishevelled (Dvl) protein” value in assay [1] is “bind”. For the same molecule, the “apoptosis, %” value with H1703 (10 μM, H1703, 1 day) worked out at 8.2%; in the assay on H1703 (100 μM, H1703, 1 day), 34.0%; in the assay on H513 (10 μM), 14.3%; in the assay with H513 (100 μM), 52.5%. The “inhibition of Wnt/beta-Catenin signaling” value in assay [2] and in assay [4] was “inhibit” in each case. Also, the “suppress cancer cell growth and induce apoptosis, % of the population” value is given as “up to 85.2%” in assay [3]; “about 20%” in assay [5]; “over 50%” with H513 (100 μM, after 4 days, human mesothelioma (H513) cells); 35% in assay [6].
